According to EP0500835B1, “A NOVEL QUINOLONE CARBOXYLIC ACID DERIVATIVE” (DAEWOONG PHARMACEUTICAL CO., LTD., priority 1990, dated 1992):
≈ marks a conversion by molar mass, not a printed value.

What was measured:
Assay in all cases: In vitro antibacterial activity, MIC by agar dilution method
Type in all cases: cell-based
E. coli O 55 = conditions: Escherichia coli, O55, read-out: In vitro Antibacterial Activity, MIC
Procedure: (§1) The typical examples of the present compounds were tested for antimicrobial activity in vitro against twenty strains of Gram-positive and Gram-negative microorganisms.
(§2) The minimum inhibitory concentrations were determined according to the agar dilution method recommended by Japan Society of Chemotherapy[Chemotherapy., 29, 76 (1981)].

E. cloacae P99 = conditions: Enterobacter cloacae, P99, read-out: In vitro Antibacterial Activity, MIC
Procedure: as §1, §2

E. cloacae 1321E = conditions: Enterobacter cloacae, 1321E, read-out: In vitro Antibacterial Activity, MIC
Procedure: as §1, §2

S. typhimurium = conditions: Salmonella enterica, TYPHIMURIUM, read-out: In vitro Antibacterial Activity, MIC
Procedure: as §1, §2

K. aerogenes 1522E = conditions: Klebsiella aerogenes, 1522E, read-out: In vitro Antibacterial Activity, MIC
Procedure: as §1, §2

S. pyogenes A 77 = conditions: Streptococcus pyogenes, A77, read-out: In vitro Antibacterial Activity, MIC
Procedure: as §1
(§3) The numerals in the table 1 show minimum inhibitory concentrations(MIC in µg/ml). The minimum inhibitory concentrations were determined according to the agar dilution method recommended by Japan Society of Chemotherapy[Chemotherapy., 29, 76 (1981)].

E. coli 1507E = conditions: Escherichia coli, 1507E, read-out: In vitro Antibacterial Activity, MIC
Procedure: as §1, §3

S. aureus SG 511 = conditions: Staphylococcus aureus, SG511, read-out: In vitro Antibacterial Activity, MIC
Procedure: as §1, §3

E. coli TEM = conditions: Escherichia coli, read-out: In vitro Antibacterial Activity, MIC
Procedure: as §1, §3

P. aeruginosa 1771M = conditions: Pseudomonas aeruginosa, 1771M, read-out: In vitro Antibacterial Activity, MIC
Procedure: as §1, §3

S. pyogenes A 308 = conditions: Streptococcus pyogenes, A308, read-out: In vitro Antibacterial Activity, MIC
Procedure: as §1, §3

P. aeruginosa 1592E = conditions: Pseudomonas aeruginosa, 1592E, read-out: In vitro Antibacterial Activity, MIC
Procedure: as §1, §3

S. aureus 285 = conditions: Staphylococcus aureus, 285, read-out: In vitro Antibacterial Activity, MIC
Procedure: as §1, §3

P. aeruginosa 1771 = conditions: Pseudomonas aeruginosa, 1771, read-out: In vitro Antibacterial Activity, MIC
Procedure: as §1, §3

S. aureus 503 = conditions: Staphylococcus aureus, 503, read-out: In vitro Antibacterial Activity, MIC
Procedure: as §1, §3

P. aeruginosa 9027 = conditions: Pseudomonas aeruginosa, 9027, read-out: In vitro Antibacterial Activity, MIC
Procedure: as §1, §3

E. coli DC 0 = conditions: Escherichia coli, DC0, read-out: In vitro Antibacterial Activity, MIC
Procedure: as §1, §3

S. faecium MD 86 = conditions: Enterococcus faecium, MD86, read-out: In vitro Antibacterial Activity, MIC
Procedure: as §1, §3

K. oxytoca 1082E = conditions: Klebsiella oxytoca, 1082E, read-out: In vitro Antibacterial Activity, MIC
Procedure: as §1, §3

E. coli DC 2 = conditions: Escherichia coli, DC2, read-out: In vitro Antibacterial Activity, MIC
Procedure: as §1, §3

`CSCC1CCN(c2c(F)c(N)c3c(=O)c(C(=O)O)cn(C4CC4)c3c2F)C1` (stereo not shown) [Example 9, 1-cyclopropyl-5-amino-6,8-difluoro-7-(3-methylthiomethylpyrrolidinyl)-1,4-dihydro-4-oxo-3-quinolinecarboxylic acid] was tested. Which MIC (E. coli O 55) did it give?
The MIC was 0.013 µg/mL (≈ 0.0317 µM).

And the MIC (E. cloacae P99)?
The MIC was 0.049 µg/mL (≈ 0.12 µM).

What about the MIC (E. cloacae 1321E) of the same compound?
The MIC was 0.049 µg/mL (≈ 0.12 µM).

What about the MIC (S. typhimurium) of the same compound?
Its MIC is 0.049 µg/mL (≈ 0.12 µM).

What about the MIC (K. aerogenes 1522E) of the same compound?
The MIC was 3.12 µg/mL (≈ 7.63 µM).

And the MIC (S. pyogenes A 77)?
The MIC was 0.391 µg/mL (≈ 0.955 µM).

And the MIC (E. coli 1507E)?
The MIC was 0.025 µg/mL (≈ 0.0611 µM).

What about the MIC (S. aureus SG 511) of the same compound?
Its MIC is 0.004 µg/mL (≈ 0.00977 µM).

And the MIC (E. coli TEM)?
The MIC was 0.025 µg/mL (≈ 0.0611 µM).

And the MIC (P. aeruginosa 1771M)?
Its MIC is 0.781 µg/mL (≈ 1.91 µM).

And the MIC (S. pyogenes A 308)?
The MIC was 0.195 µg/mL (≈ 0.476 µM).

And the MIC (P. aeruginosa 1592E)?
Its MIC is 3.12 µg/mL (≈ 7.63 µM).

And the MIC (S. aureus 285)?
Its MIC is 0.025 µg/mL (≈ 0.0611 µM).

What about the MIC (P. aeruginosa 1771) of the same compound?
The MIC was 1.56 µg/mL (≈ 3.82 µM).

And the MIC (S. aureus 503)?
Its MIC is 0.007 µg/mL (≈ 0.0171 µM).

What about the MIC (P. aeruginosa 9027) of the same compound?
The MIC was 3.12 µg/mL (≈ 7.63 µM).

And the MIC (E. coli DC 0)?
Its MIC is 3.12 µg/mL (≈ 7.63 µM).

What about the MIC (S. faecium MD 86) of the same compound?
Its MIC is 1.2 µg/mL (≈ 2.92 µM).

What about the MIC (K. oxytoca 1082E) of the same compound?
The MIC was 1.56 µg/mL (≈ 3.82 µM).

What about the MIC (E. coli DC 2) of the same compound?
Its MIC is 0.195 µg/mL (≈ 0.476 µM).

Which results are given for `CSCC1CCN(c2cc3c(cc2F)c(=O)c(C(=O)O)cn3C2CC2)C1` (stereo not shown) [Example 1, 1-cyclopropyl-6-fluoro-7-(3-methylthiomethylpyrrolidinyl)-1,4-dihydro-4-oxo-3-quinolinecarboxylic acid]?
MIC (E. coli O 55): 0.025 µg/mL (≈ 0.0664 µM); MIC (E. cloacae P99): 0.195 µg/mL (≈ 0.518 µM); MIC (E. cloacae 1321E): 0.195 µg/mL (≈ 0.518 µM); MIC (S. typhimurium): 0.195 µg/mL (≈ 0.518 µM); MIC (K. aerogenes 1522E): 0.391 µg/mL (≈ 1.04 µM); MIC (S. pyogenes A 77): 0.781 µg/mL (≈ 2.07 µM); MIC (E. coli 1507E): 1.56 µg/mL (≈ 4.15 µM); MIC (S. aureus SG 511): 0.025 µg/mL (≈ 0.0664 µM); MIC (E. coli TEM): 0.391 µg/mL (≈ 1.04 µM); MIC (P. aeruginosa 1771M): 0.391 µg/mL (≈ 1.04 µM); MIC (S. pyogenes A 308): 1.56 µg/mL (≈ 4.15 µM); MIC (P. aeruginosa 1592E): 1.56 µg/mL (≈ 4.15 µM); MIC (S. aureus 285): 0.025 µg/mL (≈ 0.0664 µM); MIC (P. aeruginosa 1771): 0.781 µg/mL (≈ 2.07 µM); MIC (S. aureus 503): 0.025 µg/mL (≈ 0.0664 µM); MIC (P. aeruginosa 9027): 1.56 µg/mL (≈ 4.15 µM); MIC (E. coli DC 0): 3.12 µg/mL (≈ 8.3 µM); MIC (S. faecium MD 86): 0.781 µg/mL (≈ 2.07 µM); MIC (K. oxytoca 1082E): 0.098 µg/mL (≈ 0.26 µM); MIC (E. coli DC 2): 0.781 µg/mL (≈ 2.07 µM)
